# Patent US6603023B2 (priority 1996, dated 2003)
# Like-named read-outs stand apart in the source and are kept apart here. Marks after values point to notes of the source that are not given here.
# Experiments:
# [1] = system: DC-3F hamster lung fibroblast cell line; experiment: SRB cytotoxicity, DC-3F; format: cell-based
# Procedure, shortened: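 Monolayer cultures grown in RPMI 1640-10% FBS at 37 °C, 5% CO2, with resistant sublines kept under their selecting agent. Cytotoxicity determined by SRB protein staining (TCA fixation, absorbance 570 nm) in duplicate at six to seven drug concentrations. ED50 obtained by median-effect plot analysis.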
# P388/Adr = experiment: cells; format: cell-based, murine; details: for IC50: 72 h
# Procedure, shortened: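 Suspension leukemic cells (CCRF-CEM, P388 and drug-resistant sublines kept under the selecting agent) were seeded at 5×10^4 cells/mL in RPMI-1640 with 10% FBS at 37 °C. After 72 h drug exposure in duplicate, PMS-XTT was added for 4 h. Absorbance was read at 450 and 630 nm.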
# [2] = system: human ovarian adenocarcinoma SK-OV-3
# MCF-7/Adr = experiment: cells; format: cell-based, human; details: for IC50: 72 h
# Procedure, shortened: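 Sulforhodamine B readout: TCA-fixed cultures stained 30 min with 0.4% SRB, bound dye extracted in unbuffered Tris and read at 570 nm. Duplicate experiments, six to seven drug concentrations per run.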
# B16 Melanoma [3] = format: in vivo, B6D2F1 mice
# CCRF-CEM/VBL = CCRF-CEM/VBL xenograft in nude mice, i.v. 6 h infusion; format: in vivo; details: for Lowest Average Tumor Size (T/C) / Tumor Disappearance: dEpoB 30 mg/kg Q2D x 5, Taxol 15 mg/kg Q2D x 5
# Text: Treatment on days 19, 21, 23, 25, 27, 39, 41, 43, 45, 47 and 53.
# B16 Melanoma [4] = format: in vivo, B6D2F1 mice; remark: listed apart in the source
# Procedure: Body weight was determined at 0, 2, 4, 6, 8, 10 and 12 days. […] Injections were started on day 1. […] Body weight was determined at 0, 2, 4, 6, 8, 10 and 12 days. […] Injections were started on day 1.
# [5] = system: Human CCRF-CEM/VBL Xenograft; experiment: CCRF-CEM/VBL xenograft in scid mice; format: in vivo, CB-17 scid mice
# [6] = 35 mg/kg i.p. Q2Dx5 from day 9, day 15
# [7] = 35 mg/kg i.p. Q2Dx5 from day 9, day 17
# [8] = 35 mg/kg i.p. Q2Dx5 from day 9, day 19
# [9] = dEpo B 15 mg/kg i.v. Q2Dx5 from day 9
# [10] = dEpo B 15 mg/kg i.v. Q2Dx5 from day 9, day 15
# [11] = dEpo B 15 mg/kg i.v. Q2Dx5 from day 9, day 17
# [12] = dEpo B 15 mg/kg i.v. Q2Dx5 from day 9, day 19
# [13] = 10 mg/kg QD × 8 from day 1, day 5
# [14] = 10 mg/kg QD × 8 from day 1, day 7
# [15] = 10 mg/kg QD × 8 from day 1, day 9
# [16] = 10 mg/kg QD × 8 from day 1, day 11
# [17] = SK-OV-3 Ovary, dEpoB 30 mg/kg Q2D x 6, Taxol 15 mg/kg Q2D x 6
# [18] = dose 2.0 i.p. QD d7-10,14,15, day 12
# [19] = dose 2.0 i.p. QD d7-10,14,15, day 17
# [20] = dose 2.0 i.p. QD d7-10,14,15, day 22
# [21] = dose 4.0 i.p. QD d7-10,14,15, day 12
# [22] = dose 4.0 i.p. QD d7-10,14,15, day 17
# [23] = dose 4.0 i.p. QD d7-10,14,15, day 22
smiles,measurement,setting,value
"C/C1=C/C[C@@H](/C(C)=C/c2csc(C)n2)OC(=O)C[C@H](O)C(C)(C)C(=O)[C@H](C)[C@@H](O)[C@@H](C)CCC1 [Desoxyepothilone B, desoxyepothilone B]",IC50,"[1]; Table 1C, SRB, 72 h, read-out: IC50",0.97 nM
same,folds of resistance (IC50 ratio vs parent cell line),"P388/Adr; Table 1C, P388/Adr vs P388/O",(0.62x)
same,IC50,"P388/Adr; Table 1C, XTT, read-out: IC50",4.2 nM
same,Toxicity Death,[2]; 35 mg/kg i.p. Q2Dx5 from day 9,0/6
same,Tumor Disapp.,[2]; 35 mg/kg i.p. Q2Dx5 from day 9,0/6
same,Average Body Weight Change,"[2]; 35 mg/kg i.p. Q2Dx5 from day 9, day 13",-1.7 g
same,Average Body Weight Change,[2]; [6],-2.1 g
same,Average Tumor Size (T/C),[2]; [6],0.57
same,Average Body Weight Change,[2]; [7],-2.1 g
same,Average Tumor Size (T/C),[2]; [7],0.33
same,Average Body Weight Change,[2]; [8],-2.4 g
same,Average Tumor Size (T/C),[2]; [8],0.35
same,Average Tumor Size (T/C),"[2]; 35 mg/kg i.p. Q2Dx5 from day 9, day 21",0.28
same,Toxicity Death,[2]; [9],4/6^b
same,Tumor Disapp.,[2]; [9],0/6
same,Average Body Weight Change,"[2]; dEpo B 15 mg/kg i.v. Q2Dx5 from day 9, day 13",0 g
same,Average Body Weight Change,[2]; [10],-0.6 g
same,Average Tumor Size (T/C),[2]; [10],0.86
same,Average Body Weight Change,[2]; [11],-1.1 g
same,Average Tumor Size (T/C),[2]; [11],0.56
same,Average Body Weight Change,[2]; [12],-2.6 g
same,Average Tumor Size (T/C),[2]; [12],0.50
same,Average Tumor Size (T/C),"[2]; dEpo B 15 mg/kg i.v. Q2Dx5 from day 9, day 21",0.44
same,tumor size treated/control,"[2]; dEpoB 35 mg/kg i.p. Q2Dx5, day 21",0.28
same,Lowest Average Tumor Size (T/C),"[2]; mouse, in vivo",0.17 T/C
same,Therapeutic Effects dEpoB vs Taxol,"[2]; mouse, in vivo",<<
same,Therapeutic effect Rank Order,"[2]; mouse, in vivo",Taxol ® ≈ dEpoB
same,Tumor Disappearance,"[2]; mouse, in vivo",0
same,Therapeutic effect Rank Order,"[2]; mouse, in vivo, iv",Taxol ® > dEpoB
same,fold resistance vs parent MCF-7,"MCF-7/Adr; MCF-7/Adr cells, listed as dEpoB",2.4 fold
same,folds of resistance (IC50 ratio vs parent cell line),"MCF-7/Adr; Table 1C, MCF-7/Adr vs MCF-7",(2.4x)
same,IC50,"MCF-7/Adr; Table 1C, SRB, read-out: IC50",7.1 nM
same,# Mice Died,B16 Melanoma [3]; 10 mg/kg QD × 8 from day 1,0/6
same,Average weight change,"B16 Melanoma [3]; 10 mg/kg QD × 8 from day 1, day 3",-0.7 g
same,Average Tumor Volume (T/C),B16 Melanoma [3]; [13],0.23
same,Average weight change,B16 Melanoma [3]; [13],-0.9 g
same,Average Tumor Volume (T/C),B16 Melanoma [3]; [14],0.22
same,Average weight change,B16 Melanoma [3]; [14],-1.1 g
same,Average Tumor Volume (T/C),B16 Melanoma [3]; [15],0.51
same,Average weight change,B16 Melanoma [3]; [15],-1.5 g
same,Average Tumor Volume (T/C),B16 Melanoma [3]; [16],0.28
same,Average weight change,B16 Melanoma [3]; [16],-0.3 g
same,mice died,B16 Melanoma [3]; 10 mg/kg QDx8 from day 1 (FIG. 44),0 of 8
same,# Mice Died,"B16 Melanoma [3]; 20 mg/kg QD1-4,7-8",0/6
same,Average weight change,"B16 Melanoma [3]; 20 mg/kg QD1-4,7-8, day 3",-1.3 g
same,Average Tumor Volume (T/C),"B16 Melanoma [3]; 20 mg/kg QD1-4,7-8, day 5",0.59
same,Average weight change,"B16 Melanoma [3]; 20 mg/kg QD1-4,7-8, day 5",-2.2 g
same,Average Tumor Volume (T/C),"B16 Melanoma [3]; 20 mg/kg QD1-4,7-8, day 7",0.63
same,Average weight change,"B16 Melanoma [3]; 20 mg/kg QD1-4,7-8, day 7",-1.3 g
same,Average Tumor Volume (T/C),"B16 Melanoma [3]; 20 mg/kg QD1-4,7-8, day 9",0.58
same,Average weight change,"B16 Melanoma [3]; 20 mg/kg QD1-4,7-8, day 9",-1.6 g
same,Average weight change,"B16 Melanoma [3]; 20 mg/kg QD1-4,7-8, day 11",-0.8 g
same,Therapeutic effect Rank Order,"B16 Melanoma [3]; mouse, in vivo, ip",dEpoB > Taxol ® >> EpoB
same,Therapeutic effect Rank Order,"CCRF-CEM/VBL; CCRF-CEM/VBL, i.v. infusion",dEpoB >>> Taxol ®
same,Lowest Average Tumor Size (T/C),CCRF-CEM/VBL; CCRF/VBL Leukemia,0 T/C
same,Tumor Disappearance,CCRF-CEM/VBL; CCRF/VBL Leukemia,2/2
same,Therapeutic Effects dEpoB vs Taxol,"CCRF-CEM/VBL; CCRF/VBL Leukemia, dEpoB 30 mg/kg Q2D x 5 vs Taxol 15 mg/kg Q2D x 5",>>>
same,Average Tumor Volume (T/C),"B16 Melanoma [4]; 20 mg/kg QD1-4,7-8, day 11",0.33
same,mice died,B16 Melanoma [4]; 20 mg/kg QDx6 from day 1 (FIG. 44),0 of 8
"CC(=O)O[C@H]1C(=O)[C@@]2(C)[C@H]([C@H](OC(=O)c3ccccc3)[C@]3(O)C[C@H](OC(=O)[C@H](O)[C@@H](NC(=O)c4ccccc4)c4ccccc4)C(C)=C1C3(C)C)[C@]1(OC(C)=O)CO[C@@H]1C[C@@H]2O [Taxol ®, paclitaxel]",IC50,"[1]; Mesocricetus auratus, DC3F, 72 h, Table 1C, SRB",95 nM
same,IC50,"[1]; Mesocricetus auratus, DC3F, Table 3",94.7 nM
same,IC50,"[1]; Mesocricetus auratus, DC3F, relative potency ordering",90 nM
same,IC50,"P388/Adr; Mus musculus, P388/ADR",326 nM
same,Tumor Disapp.,[2]; 5 mg/kg i.p. Q2Dx5 from day 9,0/6
same,Average Body Weight Change,"[2]; 5 mg/kg i.p. Q2Dx5 from day 9, day 13",-1.1 g
same,Average Body Weight Change,"[2]; 5 mg/kg i.p. Q2Dx5 from day 9, day 15",-2.0 g
same,Average Body Weight Change,"[2]; 5 mg/kg i.p. Q2Dx5 from day 9, day 17",-1.0 g
same,Average Body Weight Change,"[2]; 5 mg/kg i.p. Q2Dx5 from day 9, day 19",-0.2 g
same,Lowest Average Tumor Size (T/C),[2]; [17],0.02 T/C
same,Tumor Disappearance,[2]; [17],1/4
same,Tumor Disapp.,[2]; Taxol 15 mg/kg i.v. Q2Dx5 from day 9,0/6
same,Average Body Weight Change,"[2]; Taxol 15 mg/kg i.v. Q2Dx5 from day 9, day 13",-0.6 g
same,Average Body Weight Change,"[2]; Taxol 15 mg/kg i.v. Q2Dx5 from day 9, day 15",-0.8 g
same,Average Body Weight Change,"[2]; Taxol 15 mg/kg i.v. Q2Dx5 from day 9, day 17",-0.8 g
same,Average Body Weight Change,"[2]; Taxol 15 mg/kg i.v. Q2Dx5 from day 9, day 19",-0.9 g
same,Toxicity Death,"[2]; nude, mouse, in vivo",0/6
same,IC50,"MCF-7/Adr; Homo sapiens, NCI/ADR-RES",150 nM
same,Average weight change,"[5]; dose 2.0 i.p. QD d7-10,14,15, day 7",0
same,Average tumor volume (control = 1.00),[5]; [18],0.60
same,Average weight change,[5]; [18],−0.9
same,Average tumor volume (control = 1.00),[5]; [19],0.58
same,Average weight change,[5]; [19],−1.5
same,Average tumor volume (control = 1.00),[5]; [20],0.70
same,Average weight change,[5]; [20],−0.1
same,Average weight change,"[5]; dose 4.0 i.p. QD d7-10,14,15, day 7",0
same,Average tumor volume (control = 1.00),[5]; [21],0.79
same,Average weight change,[5]; [21],−1.4
same,Average tumor volume (control = 1.00),[5]; [22],0.55
same,Average weight change,[5]; [22],−1.6
same,Average tumor volume (control = 1.00),[5]; [23],0.41
same,Average weight change,[5]; [23],−0.9
same,Lowest Average Tumor Size (T/C),CCRF-CEM/VBL; CCRF/VBL Leukemia,0.76 T/C
same,Tumor Disappearance,CCRF-CEM/VBL; CCRF/VBL Leukemia,0
same,# Mice Died,"B16 Melanoma [4]; B6D2F1, mouse, in vivo",0/8
